In experiment [1] the test system is isoflurane-anesthetized rats. Briefly: infusion of bicuculline methiodide into the region of the DMH, simultaneous measurement of blood pressure, heart rate and IOP. It is filed as in vivo, rat. Conditions: BMI 30 pmol/75 nL into the DMH vs saline vehicle. How it is done:
FIG. 2A-C Simultaneous measurement of blood pressure (FIG. 2A), heart rate (FIG. 2B), and IOP (FIG. 2C) in a series of isoflurane-anesthetized rats after infusion of bicuculline methiodide (30 pmol/75 nL; n=9) or saline vehicle (75 nL; n=10) into the region of the DMH. * indicates a significant difference (p<0.05) between the vehicle treated and the BMI treated group using a repeated measures ANOVA followed by post-hoc analysis for differences between timepoints using a t-test.
To investigate whether orexin containing neurons located in the dorsornedial hypothalamus (DMH) and/or perifornical (PeF) area play a role in mediating the circadian fluctuations in IOP, isoflurane-anesthetized rats were administered orexin inhibitors and their vital functions were monitored.

Another experiment deals with panic-prone rats. Conditions: 30 mg/kg i.p. prior to 15 min i.v. infusion of 0.5M sodium lactate. The text has this: Panic disorder is associated with disruption of central inhibitory gamma-aminobutyric acid (GABAergic) tone, and may contribute to panic attacks which are consistently provoked by ordinarily mild physical stressors such as mild osmotic disturbances (e.g., intravenous sodium lactate challenges). […] Orexin/hypocretin producing neurons are almost exclusive to dorsomedial hypothalamus/perifornical area and adjacent lateral hypothalamus, and play a critical role in maintaining wakefulness, vigilance and central sympathetic mobilization, which are key components of panic and anxiety. Experiments were conducted to investigate whether the administration of either a systemic orexin 1 antagonist or silencing the hypothalamic orexin gene product with RNA interference could block lactate-induced panic responses.

Experiment [2] deals with isoflurane anesthetized rat. The experiment in a line: attenuation of physiologic responses to BMI microinjection into the DMH by systemic orexin-1 receptor antagonist. Type of experiment: in vivo. Conditions: 30 mg/kg i.p.; BMI 20 pmol/50 nL into the DMH before and after antagonist; FIG. 3; listed as SB334861. How it is done: FIG. 3 Continuous and simultaneous measurement of blood pressure, heart rate, and core body temperature in an isoflurane anesthetized rat after identical microinjections of BMI (20 pmol/50 nL) into the DMH (time marks 1 and 3) before and after systemic administration of the orexin-1 receptor antagonist SB334861 (30 mg/kg i.p.; time mark 2).
Experiments were then conducted to determine whether an orexin-I receptor antagonist (SB334861) could attenuate the physiologic responses to chemical stimulation of the DMH. To test orexin inhibitors ability to attenuate the BMI stimulated response, BMI was administered to an isoflurane-anesthetized rat both before and after administration of the orexin inhibitor and the responses were monitored.

Experiment [3] concerns the target T1, orexin receptor-1 (ORX 1) (Homo sapiens, UniProt O43613).
T1 sequence (O43613 1-425): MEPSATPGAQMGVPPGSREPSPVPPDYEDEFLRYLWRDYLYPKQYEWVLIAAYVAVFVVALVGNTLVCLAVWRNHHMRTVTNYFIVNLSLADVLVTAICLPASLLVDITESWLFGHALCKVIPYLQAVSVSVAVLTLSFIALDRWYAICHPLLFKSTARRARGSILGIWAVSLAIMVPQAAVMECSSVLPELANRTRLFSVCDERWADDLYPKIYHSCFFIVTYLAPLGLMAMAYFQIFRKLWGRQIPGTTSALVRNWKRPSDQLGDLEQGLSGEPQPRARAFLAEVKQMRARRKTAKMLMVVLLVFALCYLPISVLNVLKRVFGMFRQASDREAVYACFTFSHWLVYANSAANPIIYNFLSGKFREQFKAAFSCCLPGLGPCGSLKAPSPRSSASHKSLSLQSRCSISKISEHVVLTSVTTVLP
To be noted: orexin A relative to orexin B; cited from earlier work.

“Also recorded” adds a separate entry of the source.

For the compound `C[N+]1(C)CCc2cc3c(cc2[C@H]1[C@@H]1OC(=O)c2c1ccc1c2OCO1)OCO3.[I-]` [BMI, bicuculline methiodide], the “blood pressure after chemical stimulation of the DMH” value in experiment [1] (FIG. 2A) is recorded as “expected increases”. Besides, in experiment [1] (FIG. 2B), the “heart rate after chemical stimulation of the DMH” value was “expected increases”. Also, in experiment [1] (FIG. 2C), the “IOP after chemical stimulation of the DMH” value is listed as “evoked an increase”.
In the case of `Cc1nc2ccc(NC(=O)Nc3ccnc4cccnc34)cc2o1` [SB334867, 1-(2-methylbenzoxazol-6-yl)-3-[1,5]naphthyridin-4-yl urea], the “lactate induced increases in core body temperature (thermogenic response)” value with panic-prone rats (FIG. 1C) is listed as “attenuated; also recorded: blocks”. Besides, the “lactate induced increases in heart rate (cardioexcitatory response)” value with panic-prone rats (FIG. 1D) was “attenuated; also recorded: blocks”. In addition, in experiment [2], the “BMI-evoked increase in blood pressure” value is “significant attenuation”, the “BMI-evoked increase in core body temperature” value is “significant attenuation” and the “BMI-evoked increase in heart rate” value was “significant attenuation”.
As to “orexin A: 33-amino acid neuropeptide, endogenous ligand of orexin receptors (QPLPDCCRQKTCSCRLYELLHGAGNHAAGILTL; Orexin-A; UniProt O43612 34-66, looked up)”, in experiment [3], the “affinity of ORX 1 for orexin A greater than for orexin B” value was 1 order of magnitude.

Source of the values: patent publication US8980910B2, “Treatment of glaucoma” (Indiana University Research and Technology Corporation, priority 2011, dated 2015).
